Each compound was assayed against T1, human TRPM8 (Homo sapiens, UniProt Q7Z2W7) (assay: Luminescence readout assay for measuring intracellular calcium (aequorin), hTRPM8 antagonism). Settings: CHO cell line expressing human TRPM8 and aequorin; activation by icilin, L-menthol or cold buffer (table does not say which).
T1 construct: expressed in transfected cells; host or cells: Chinese hamster ovary (CHO) cells, T-REx tetracycline-inducible expression system (Invitrogen), co-transfected with pcDNA3.1 jellyfish aequorin
T1 sequence (Q7Z2W7 whole entry): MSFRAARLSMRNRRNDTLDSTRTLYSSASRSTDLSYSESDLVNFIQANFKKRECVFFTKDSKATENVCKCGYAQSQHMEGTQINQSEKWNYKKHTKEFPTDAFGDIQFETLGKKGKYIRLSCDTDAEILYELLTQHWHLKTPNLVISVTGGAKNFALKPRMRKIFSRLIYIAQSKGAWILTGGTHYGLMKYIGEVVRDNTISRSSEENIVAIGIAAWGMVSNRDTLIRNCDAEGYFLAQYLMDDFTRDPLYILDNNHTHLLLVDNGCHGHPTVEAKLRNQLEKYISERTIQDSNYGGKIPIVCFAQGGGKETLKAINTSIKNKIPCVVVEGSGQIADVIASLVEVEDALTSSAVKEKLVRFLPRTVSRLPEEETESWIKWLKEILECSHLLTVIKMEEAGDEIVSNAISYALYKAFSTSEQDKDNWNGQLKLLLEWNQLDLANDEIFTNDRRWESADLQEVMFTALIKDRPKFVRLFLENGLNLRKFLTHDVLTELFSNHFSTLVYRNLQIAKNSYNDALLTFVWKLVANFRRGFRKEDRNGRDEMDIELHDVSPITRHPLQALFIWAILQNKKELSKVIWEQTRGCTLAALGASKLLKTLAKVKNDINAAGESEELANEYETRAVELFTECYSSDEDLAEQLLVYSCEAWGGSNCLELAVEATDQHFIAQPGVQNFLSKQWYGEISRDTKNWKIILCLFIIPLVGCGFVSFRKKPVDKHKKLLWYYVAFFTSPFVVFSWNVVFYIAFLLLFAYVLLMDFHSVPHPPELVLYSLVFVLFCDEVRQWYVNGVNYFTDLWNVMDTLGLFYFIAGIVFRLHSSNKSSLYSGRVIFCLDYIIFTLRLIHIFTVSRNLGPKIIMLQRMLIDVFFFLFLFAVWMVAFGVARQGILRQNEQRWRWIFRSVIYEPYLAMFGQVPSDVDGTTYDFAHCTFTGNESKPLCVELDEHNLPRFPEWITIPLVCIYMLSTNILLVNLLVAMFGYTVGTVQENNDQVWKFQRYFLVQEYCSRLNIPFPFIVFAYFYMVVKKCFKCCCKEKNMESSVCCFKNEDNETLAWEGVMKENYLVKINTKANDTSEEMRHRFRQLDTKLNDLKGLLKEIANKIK
Assay type: cell-based
Compound `CC(=O)c1ccc(NC(=O)N[C@@H](c2ccc(C(F)(F)F)cc2)c2ncccc2C(F)(F)F)cc1` [Example 138, (S)-1-(4-acetylphenyl)-3-((4-(trifluoro-methyl)-phenyl)(3-(trifluoro-methyl)-pyridin-2-yl)-methyl)urea (2,2,2-trifluoro-acetate)] has an IC50 of 3720 nM. `O=C(Nc1cccnc1)N[C@H](c1cccc(C(F)(F)F)c1)c1ccc(C(F)(F)F)c(F)c1` [Example 117, (R)-1-((3-fluoro-4-(trifluoro-methyl)-phenyl)(3-(trifluoro-methyl)-phenyl)-methyl)-3-(pyridin-3-yl)-urea (2,2,2-trifluoro-acetate)] showed an IC50 of 1750 nM. `O=C(Nc1cccnc1)NC(c1cc(F)cc(Cl)c1)c1ncccc1F` (stereo not shown) [Example 24, 1-((3-chloro-5-fluoro-phenyl)(3-fluoropyridin-2-yl)methyl)-3-(pyridin-3-yl)urea (2,2,2-trifluoro-acetate)] showed an IC50 of 674 nM. `O=C(Nc1cccnc1)NC(c1ccc(C(F)(F)F)nc1)c1ncccc1C(F)(F)F` (stereo not shown) [Example 25, 1-(pyridin-3-yl)-3-((3-(trifluoro-methyl)-pyridin-2-yl)-(6-(trifluoro-methyl)-pyridin-3-yl)-methyl)urea (2,2,2-trifluoro-acetate)] was tested, and the IC50 was 216 nM. `COC(=O)c1cccc(NC(=O)N[C@@H](c2ccc(C(F)(F)F)cc2)c2ncccc2C(F)(F)F)c1` [Example 102, (S)-methyl 3-(3-((4-(trifluoro-methyl)-phenyl)(3-(trifluoro-methyl)-pyridin-2-yl)-methyl)-ureido)-benzoate (2,2,2-trifluoro-acetate)] was tested, and the IC50 was 262 nM. Compound `O=C(N[C@@H](c1ccc(C(F)(F)F)cc1)c1ccccn1)OCc1ccccc1` [Example 172, (S)-Benzyl(pyridin-2-yl(4-(trifluoromethyl)phenyl)methyl)-carbamate 2,2,2-trifluoroacetate] has an IC50 of 360 nM. Compound `Cc1c(NC(=O)N[C@@H](c2ccc(C(F)(F)F)cc2)c2ncccc2C(F)(F)F)cccc1[N+](=O)[O-]` [Example 142, (S)-1-(2-methyl-3-nitrophenyl)-3-((4-(trifluoro-methyl)-phenyl)(3-(trifluoro-methyl)-pyridin-2-yl)-methyl)urea (2,2,2-trifluoro-acetate)] has an IC50 of 2180 nM. For `CCc1cccc(CC)c1NC(=O)N[C@@H](c1ccc(C(F)(F)F)cc1)c1ncccc1C(F)(F)F` [Example 88, (S)-1-(2,6-diethylphenyl)-3-((4-(trifluoro-methyl)-phenyl)(3-(trifluoro-methyl)-pyridin-2-yl)-methyl)urea (2,2,2-trifluoro-acetate)], the IC50 was 108 nM. With `O=C(NC(=O)Oc1ccccc1)N[C@@H](c1ccc(C(F)(F)F)cc1)c1ncccc1C(F)(F)F` [Example 35, (S)-1-(phenyl-formate)-3-((4-(trifluoro-methyl)-phenyl)(3-(trifluoro-methyl)-pyridin-2-yl)-methyl)urea (2,2,2-trifluoro-acetate)] the IC50 was 1710 nM. `CCOC(=O)CCNC(=O)N[C@@H](c1ccc(C(F)(F)F)cc1)c1ncccc1C(F)(F)F` [Example 66, (S)-ethyl 3-(3-((4-(trifluoro-methyl)-phenyl)(3-(trifluoro-methyl)-pyridin-2-yl)-methyl)-ureido)-propanoate (2,2,2-trifluoro-acetate)] was tested, and the IC50 was 905 nM. `O=C(Nc1ccc(F)cc1F)N[C@@H](c1ccc(C(F)(F)F)cc1)c1ncccc1C(F)(F)F` [Example 48, (S)-1-(2,4-difluoro-phenyl)-3-((4-(trifluoro-methyl)-phenyl)(3-(trifluoro-methyl)-pyridin-2-yl)-methyl)urea] gave an IC50 of 2280 nM. With `O=C(Nc1cc[nH]c(=O)c1)N[C@@H](c1ccc(C(F)(F)F)cc1)c1ncccc1F` [Example 164, (S)-1-((3-fluoropyridin-2-yl)(4-(trifluoro-methyl)-phenyl)-methyl)-3-(2-oxo-1,2-dihydropyridin-4-yl)urea] the IC50 was 2880 nM. Compound `CCCc1cccnc1[C@@H](NC(=O)Nc1cccnc1)c1ccc(C(F)(F)F)cc1` [Example 168, (S)-1-((3-Propylpyridin-2-yl)(4-(trifluoromethyl)phenyl)-methyl)-3-(pyridin-3-yl)urea] has an IC50 of 67 nM. Compound `O=C(NCc1ccccc1F)N[C@@H](c1ccc(C(F)(F)F)cc1)c1ncccc1C(F)(F)F` [Example 87, (S)-1-(2-fluorobenzyl)-3-((4-(trifluoro-methyl)-phenyl)(3-(trifluoro-methyl)-pyridin-2-yl)-methyl)urea (2,2,2-trifluoro-acetate)] has an IC50 of 199 nM. `CC(=O)c1cccc(NC(=O)N[C@@H](c2ccc(C(F)(F)F)cc2)c2ncccc2C(F)(F)F)c1` [Example 86, (S)-1-(3-acetylphenyl)-3-((4-(trifluoro-methyl)-phenyl)(3-(trifluoro-methyl)-pyridin-2-yl)-methyl)urea (2,2,2-trifluoro-acetate)] was tested, and the IC50 was 31 nM. `CCOC(=O)CNC(=O)N[C@@H](c1ccc(C(F)(F)F)cc1)c1ncccc1C(F)(F)F` [Example 38, (S)-ethyl 2-(3-((4-(trifluoro-methyl)-phenyl)(3-(trifluoro-methyl)-pyridin-2-yl)-methyl)-ureido)acetate (2,2,2-trifluoro-acetate)] was tested, and the IC50 was 1500 nM. `CC(C)(C)OC(=O)N[C@@H](c1ccc(C(F)(F)F)cc1)c1ncccc1Br` [Example 173, (S)-tert-Butyl((3-bromopyridin-2-yl)(4-(trifluoromethyl)-phenyl)methyl)carbamate] was tested, and the IC50 was 299 nM. Work on `CCCC[C@H](C)NC(=O)N[C@@H](c1ccc(C(F)(F)F)cc1)c1ncccc1C(F)(F)F` [Example 83, 1-((S)-hexan-2-yl)-3-((S)-(4-(trifluoro-methyl)-phenyl)(3-(trifluoro-methyl)-pyridin-2-yl)-methyl)urea (2,2,2-trifluoro-acetate)] yielded an IC50 of 115 nM. Work on `COc1ncc(NC(=O)N[C@@H](c2ccc(C(F)(F)F)cc2)c2ncccc2F)cn1` [Example 160, (S)-1-((3-fluoropyridin-2-yl)(4-(trifluoro-methyl)-phenyl)-methyl)-3-(2-methoxy-pyrimidin-5-yl)urea] yielded an IC50 of 1650 nM. In the case of `O=C(Nc1ccccc1Cl)N[C@@H](c1ccc(C(F)(F)F)cc1)c1ncccc1C(F)(F)F` [Example 181, (S)-1-(2-chlorophenyl)-3-((4-(trifluoro-methyl)phenyl) (3-(trifluoro-methyl)pyridin-2-yl)methyl)urea (2,2,2-trifluoro-acetate)], the IC50 is reported as 142 nM. Work on `C=CCc1cccnc1[C@@H](NC(=O)N[C@@H](C)C(F)(F)F)c1ccc(C(F)(F)F)cc1` [Example 158, 1-((S)-(3-allylpyridin-2-yl)(4-(trifluoro-methyl)-phenyl)-methyl)-3-((S)-1,1,1-trifluoro-propan-2-yl)-urea] yielded an IC50 of 28 nM. Compound `O=C(NCc1ccc(Cl)cc1Cl)N[C@@H](c1ccc(C(F)(F)F)cc1)c1ncccc1C(F)(F)F` [Example 135, (S)-1-(2,4-dichlorobenzyl)-3-((4-(trifluoro-methyl)-phenyl)(3-(trifluoro-methyl)-pyridin-2-yl)-methyl)urea (2,2,2-trifluoro-acetate)] has an IC50 of 829 nM. For `O=C(NCC1CCCCC1)N[C@@H](c1ccc(C(F)(F)F)cc1)c1ncccc1C(F)(F)F` [Example 127, (S)-1-(cyclohexyl-methyl)-3-((4-(trifluoro-methyl)-phenyl)(3-(trifluoro-methyl)-pyridin-2-yl)-methyl)urea (2,2,2-trifluoro-acetate)], the IC50 was 657 nM. Work on `C=C(C)c1cccc(C(C)(C)NC(=O)N[C@@H](c2ccc(C(F)(F)F)cc2)c2ncccc2C(F)(F)F)c1` [Example 105, (S)-1-(2-(3-(prop-1-en-2-yl)phenyl)-propan-2-yl)-3-((4-(trifluoro-methyl)-phenyl)(3-(trifluoro-methyl)-pyridin-2-yl)-methyl)urea (2,2,2-trifluoro-acetate)] yielded an IC50 of 545 nM. With `CCOC(=O)[C@H](C)NC(=O)N[C@@H](c1ccc(C(F)(F)F)cc1)c1ncccc1C(F)(F)F` [Example 94, (S)-ethyl 2-(3-((S)-(4-(trifluoro-methyl)-phenyl)(3-(trifluoro-methyl)-pyridin-2-yl)-ureido)-propanoate (2,2,2-trifluoro-acetate)] the IC50 was 1710 nM. `O=C(NCCc1ccc2c(c1)OCO2)N[C@@H](c1ccc(C(F)(F)F)cc1)c1ncccc1C(F)(F)F` [Example 36, (S)-1-(2-(benzo[d][1,3]dioxol-5-yl)-ethyl)-3-((4-(trifluoro-methyl)-phenyl)(3-(trifluoro-methyl)-pyridin-2-yl)-methyl)urea (2,2,2-trifluoro-acetate)] showed an IC50 of 390 nM. For `C=CCc1cccnc1[C@@H](NC(=O)Nc1cccnc1)c1ccc(C(F)(F)F)cc1` [Example 43, (S)-1-((3-allylpyridin-2-yl)(4-(trifluoromethyl)phenyl)-methyl)-3-(pyridin-3-yl)urea], the IC50 was 22 nM. `COc1cccc([C@@H](C)NC(=O)N[C@@H](c2ccc(C(F)(F)F)cc2)c2ncccc2C(F)(F)F)c1` [Example 128, 1-((R)-1-(3-methoxy-phenyl)ethyl)-3-((S)-(4-(trifluoro-methyl)-phenyl)(3-(trifluoro-methyl)-pyridin-2-yl)-methyl)urea (2,2,2-trifluoro-acetate)] was tested, and the IC50 was 4060 nM. In the case of `COC(=O)c1cc(NC(=O)N[C@@H](c2ccc(C(F)(F)F)cc2)c2ncccc2C(F)(F)F)cc(C(=O)OC)c1` [Example 103, (S)-dimethyl 5-(3-((4-(trifluoro-methyl)-phenyl)(3-(trifluoro-methyl)-pyridin-2-yl)-methyl)-ureido)-isophthalate (2,2,2-trifluoro-acetate)], the IC50 is reported as 527 nM. For `O=C(NCc1ccc(Cl)cc1)N[C@@H](c1ccc(C(F)(F)F)cc1)c1ncccc1C(F)(F)F` [Example 134, (S)-1-(4-chlorobenzyl)-3-((4-(trifluoro-methyl)-phenyl)(3-(trifluoro-methyl)-pyridin-2-yl)-methyl)urea (2,2,2-trifluoro-acetate)], the IC50 was 1070 nM. `O=C(Nc1cccnc1)N[C@@H](c1ccc(OC(F)(F)F)cc1)c1ncccc1F` [Example 15, (S)-1-((3-fluoropyridin-2-yl)(4-(trifluoro-methoxy)-phenyl)-methyl)-3-(pyridin-3-yl)-urea] showed an IC50 of 15 nM.

Reference: patent US8778941B2, “TRPM8 antagonists and their use in treatments” (AMGEN Inc., priority 2011, dated 2014)
